Measurements as given in patent US20050059585A1, “Methionine aminopeptidase-2 inhibitors and methods of use thereof” (Praecis Pharmaceuticals Inc., priority 2000, published 2005).

Experiments:
Assay in all cases: tumor cell line panel, SRB growth assay
Type in all cases: cell-based
ACHN = details: Homo sapiens, Renal, 48 hours
Experimental: (§1) The compound of example 5 was also evaluated against a panel of cancer cell lines (Alley, M.C. et al. […] Cancer Research 48: 589-601; Grever, M. R., et al. (1992) Seminars in Oncology, Vol. 19, No. 6, pp 622-638; Boyd, M. R., and Paull, K. D. (1995) Drug Development Research 34: 91-109). The human tumor cell lines of the cancer screening panel were grown in RPMI 1640 medium containing 5% fetal bovine serum and 2 mM L-glutamine. Cells were inoculated into 96 well microtiter plates in 100 μL at plating densities ranging from 5,000 to 40,000 cells/well depending on the doubling time of individual cell lines. After cell inoculation, the microtiter plates were incubated at 37° C., 5 % CO2, 95 % air and 100 % relative humidity for 24 hours prior to addition of experimental drugs.
(§2) After the 24 hour incubation period, two plates of each cell line were fixed in situ with TCA, to represent a measurement of the cell population for each cell line at the time of drug addition (Tz). Experimental drugs were solubilized in dimethyl sulfoxide at 400-fold the desired final maximum test concentration and stored frozen prior to use. At the time of drug addition, an aliquot of frozen concentrate was thawed and diluted to twice the desired final maximum test concentration with complete medium containing 50 μg/ml gentamicin. Additional four, 10-fold or ½ log serial dilutions were made to provide a total of five drug concentrations plus control. Aliquots of 100 μl of these different drug dilutions were added to the appropriate microtiter wells already containing 100 μl of medium, resulting in the required final drug concentrations.
(§3) Following drug addition, the plates were incubated for an additional 48 hours at 37° C., 5 % CO2, 95 % air, and 100 % relative humidity. For adherent cells, the assay was terminated by the addition of cold TCA. Cells were fixed in situ by the gentle addition of 50 μl of cold 50 % (w/v) TCA (final concentration, 10% TCA) and incubated for 60 minutes at 4° C. The supernatant was discarded, and the plates were washed five times with tap water and air dried. Sulforhodamine B (SRB) solution (100 μl) at 0.4 % (w/v) in 1 % acetic acid were added to each well, and plates were incubated for 10 minutes at room temperature. After staining, unbound dye was removed by washing five times with 1 % acetic acid and the plates were air dried. Bound stain was subsequently solubilized with 10 mM trizma base, and the absorbance was read on an automated plate reader at a wavelength of 515 nm. For suspension of the cells, the methodology used was the same except that the assay was terminated by fixing settled cells at the bottom of the wells by gently adding 50 μl of 80 % TCA (final concentration, 16% TCA). Using the seven absorbance measurements [time zero, (Tz), control growth, (C), and test growth in the presence of drug at the five concentration levels (Ti)], the percentage growth was calculated at each of the drug concentrations levels.
(§4) Percentage growth inhibition was calculated as: [(Ti−Tz)/(C−Tz)]×100 for concentrations for which Ti>/=Tz [(Ti−Tz)/Tz]×100 for concentrations for which Ti<Tz.
(§5) Growth inhibition of 50% (GI50) was calculated from [(Ti−Tz)/(C−Tz)]×100=50, which is the drug concentration resulting in a 50% reduction in the net protein increase (as measured by SRB staining) in control cells during the drug incubation. The G150 was calculated for each of the cell lines if the level of activity is reached; however, if the effect was not reached or is exceeded, the value for that parameter is expressed as greater or less than the maximum (10^−4 M) or minimum (10^−8 M) concentration tested.

CAKI-1 = details: Homo sapiens; CAKI-1, Renal, 48 hours
Experimental: as §1, §2, §3, §4, §5

DU-145 = details: Homo sapiens; DU-145, Prostate, 48 hours
Experimental: as §1, §2, §3, §4, §5

HCT-15 = details: Homo sapiens; HCT-15, Colon, 48 hours
Experimental: as §1, §2, §3, §4, §5

HOP-62 = details: Homo sapiens; HOP-62, Non-Small Cell Lung, 48 hours
Experimental: as §1, §2, §3, §4, §5

HOP-92 = details: Homo sapiens; HOP-92, Non-Small Cell Lung, 48 hours
Experimental: as §1, §2, §3, §4, §5

HT29 = details: Homo sapiens, HT-29; HT29, Colon, 48 hours
Experimental: as §1, §2, §3, §4, §5

IGR-OV1 = details: Homo sapiens, IGROV-1; IGR-OV1, Ovarian, 48 hours
Experimental: as §1, §2, §3, §4, §5

KM12 = details: Homo sapiens; KM12, Colon, 48 hours
Experimental: as §1, §2, §3, §4, §5

MCF7 = details: Homo sapiens; MCF7, Breast, 48 hours
Experimental: as §1, §2, §3, §4, §5

MDA-MB-231/ATCC = details: Homo sapiens, Breast, 48 hours
Experimental: as §1, §2, §3, §4, §5

NCI-H226 = details: Homo sapiens; NCI-H226, Non-Small Cell Lung, 48 hours
Experimental: as §1, §2, §3, §4, §5

NCI-H23 = details: Homo sapiens; NCI-H23, Non-Small Cell Lung, 48 hours
Experimental: as §1, §2, §3, §4, §5

OVCAR-8 = details: Homo sapiens; OVCAR-8, Ovarian, 48 hours
Experimental: as §1, §2, §3, §4, §5

RPMI-8226 = details: Homo sapiens; RPMI-8226, Leukemia, 48 hours
Experimental: as §1, §2, §3, §4, §5

RXF 393 = details: Homo sapiens; RXF 393, Renal, 48 hours
Experimental: as §1, §2, §3, §4, §5

SK-MEL-28 = details: Homo sapiens; SK-MEL-28, Melanoma, 48 hours
Experimental: as §1, §2, §3, §4, §5

SNB-19 = details: Homo sapiens; SNB-19, CNS, 48 hours
Experimental: as §1, §2, §3, §4, §5

SNB-75 = details: Homo sapiens; SNB-75, CNS, 48 hours
Experimental: as §1, §2, §3, §4, §5

SR = details: Homo sapiens, Leukemia, 48 hours
Experimental: as §1, §2, §3, §4, §5

TK-10 = details: Homo sapiens; TK-10, Renal, 48 hours
Experimental: as §1, §2, §3, §4, §5

`CO[C@@H]1[C@H](OC(=O)N[C@@H](C(N)=O)C(C)C)CC[C@]2(CO2)[C@H]1[C@@]1(C)O[C@@H]1CC=C(C)C` [Example 5, (1-Carbamoyl-2-methyl-propyl)-carbamic acid-(3R, 4S, 5S, 6R )-5-methoxy-4-[(2R, 3R)-2-methyl-3-(3-methyl-but-2-enyl)-oxiranyl]-1-oxa-spiro[2.5]oct-6-yl ester] was tested, and the GI50 (ACHN) was < 0.01 µM, the GI50 (CAKI-1) was < 0.01 µM and the GI50 (DU-145) was < 0.01 µM. For the same compound, the GI50 (HCT-15) was 7.13 µM, the GI50 (HOP-62) was < 0.01 µM and the GI50 (HOP-92) was 33.9 µM. For the same compound, the GI50 (HT29) was 16.1 µM, the GI50 (IGR-OV1) was < 0.01 µM and the GI50 (KM12) was < 0.01 µM. The GI50 (MCF7) was 12.4 µM, the GI50 (MDA-MB-231/ATCC) was < 0.01 µM and the GI50 (NCI-H226) was 0.791 µM. For the same compound, the GI50 (NCI-H23) was 6.34 µM, the GI50 (OVCAR-8) was 18.4 µM and the GI50 (RPMI-8226) was < 0.01 µM. For the same compound, the GI50 (RXF 393) was 40.2 µM, the GI50 (SK-MEL-28) was 5.96 µM and the GI50 (SNB-19) was < 0.01 µM. For the same compound, the GI50 (SNB-75) was 90.9 µM, the GI50 (SR) was < 0.01 µM and the GI50 (TK-10) was 0.0543 µM.
